Test results taken from patent US8273754B2, “Substituted 1H-pyrazolo[3,4-D]pyrimidine-6-amine compounds” (ArQule, Inc., priority 2008, dated 2012).
Where two headings read alike, the source gives them in different places.

Test system: cancer cells
Test: MTS cell growth inhibition assay (72 hours)
Assay type: cell-based
Summary of the method: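 Growth inhibition read as formazan absorbance at 492 nm after 4 h MTS/PMS, following 72 h compound exposure at 37 °C in 1% FBS DMEM (cells pre-seeded 18 h). IC50 = 50% absorbance reduction; inhibition graded in bands.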

[1] = Homo sapiens, DLD-1, 72 h, DLD-1 cells, read-out: DLD-1 MTS 72 hr at 10 μM
[2] = Homo sapiens, KATO III, 72 h, KATO III cells, read-out: KATO III MTS 72 hr at 10 μM
[3] = Homo sapiens, MDA-MB-231, 72 h, MDA-MB-231 cells, read-out: MDA-MB-231 MTS 72 hr at 10 μM
[4] = Homo sapiens, NCI-H1299, 72 h, NCI-H1299 cells, read-out: NCI-H1299 MTS 72 hr at 10 μM
[5] = PaCa-2, 72 h, PACA-2 cells, read-out: PACA-2 MTS 72 hr at 10 μM

For `Nc1nc(NC2Cc3ccccc3N(C(=O)Nc3ccccc3Cl)C2)c2cn[nH]c2n1` (stereo not shown) [Compound 118, 3-(6-amino-1H-pyrazolo[3,4-d]pyrimidin-4-ylamino)-N-(2-chlorophenyl)-3,4-dihydroquinoline-1(2H)-carboxamide], the inhibition at 10 µM [1] was < 50%, the inhibition at 10 µM [2] was < 50% and the inhibition at 10 µM [3] was < 50%. The inhibition at 10 µM [4] was < 50% and the inhibition at 10 µM [5] was < 50%.
With `COC(=O)c1ccccc1NC(=O)N1CC(Nc2nc(N)nc3[nH]ncc23)Cc2ccccc21` (stereo not shown) [Compound 119, methyl 2-(3-(6-amino-1H-pyrazolo[3,4-d]pyrimidin-4-ylamino)-1,2,3,4-tetrahydroquinoline-1-carboxamido)benzoate] the inhibition at 10 µM [1] was > 79%, the inhibition at 10 µM [2] was > 79% and the inhibition at 10 µM [3] was > 79%. The inhibition at 10 µM [4] was > 79% and the inhibition at 10 µM [5] was > 79%.
`Nc1nc(NC2Cc3ccccc3N(C(=O)Nc3ccc(F)c(F)c3F)C2)c2cn[nH]c2n1` (stereo not shown) [Compound 120, 3-(6-amino-1H-pyrazolo[3,4-d]pyrimidin-4-ylamino)-N-(2,3,4-trifluorophenyl)-3,4-dihydroquinoline-1(2H)-carboxamide] was tested, and the inhibition at 10 µM [1] was > 79%, the inhibition at 10 µM [2] was > 79% and the inhibition at 10 µM [3] was 50 to 79%. For the same compound, the inhibition at 10 µM [4] was < 50% and the inhibition at 10 µM [5] was > 79%.
With `Cc1ccc(CN2CC(Nc3nc(N)nc4[nH]ncc34)Cc3ccccc32)cc1C` (stereo not shown) [Compound 130, N4-[1-(3,4-dimethylbenzyl)-1,2,3,4-tetrahydroquinolin-3-yl]-1H-pyrazolo[3,4-d]pyrimidine-4,6-diamine] the inhibition at 10 µM [1] was < 50%, the inhibition at 10 µM [2] was < 50% and the inhibition at 10 µM [3] was < 50%. For the same compound, the inhibition at 10 µM [4] was < 50% and the inhibition at 10 µM [5] was < 50%.
With `Nc1nc(NC2Cc3ccccc3N(Cc3ccc4nccnc4c3)C2)c2cn[nH]c2n1` (stereo not shown) [Compound 133, N4-[1-(quinoxalin-6-ylmethyl)-1,2,3,4-tetrahydroquinolin-3-yl]-1H-pyrazolo[3,4-d]pyrimidine-4,6-diamine] the inhibition at 10 µM [1] was < 50%, the inhibition at 10 µM [2] was < 50% and the inhibition at 10 µM [3] was < 50%. For the same compound, the inhibition at 10 µM [4] was < 50% and the inhibition at 10 µM [5] was < 50%.
With `Cc1ccc(CN2CC(Nc3nc(N)nc4[nH]ncc34)Cc3ccccc32)c(C)c1` (stereo not shown) [Compound 134, N4-[1-(2,4-dimethylbenzyl)-1,2,3,4-tetrahydroquinolin-3-yl]-1H-pyrazolo[3,4-d]pyrimidine-4,6-diamine] the inhibition at 10 µM [1] was > 79%, the inhibition at 10 µM [2] was > 79% and the inhibition at 10 µM [3] was < 50%. The inhibition at 10 µM [4] was < 50% and the inhibition at 10 µM [5] was 50 to 79%.
`Cc1ccc(F)c(CN2CC(Nc3nc(N)nc4[nH]ncc34)Cc3ccccc32)c1` (stereo not shown) [Compound 135, N4-[1-(2-fluoro-5-methylbenzyl)-1,2,3,4-tetrahydroquinolin-3-yl]-1H-pyrazolo[3,4-d]pyrimidine-4,6-diamine] was tested, and the inhibition at 10 µM [1] was > 79%, the inhibition at 10 µM [2] was > 79% and the inhibition at 10 µM [3] was 50 to 79%. For the same compound, the inhibition at 10 µM [4] was 50 to 79% and the inhibition at 10 µM [5] was > 79%.
For `Nc1nc(NC2Cc3ccccc3N(Cc3ccc(-c4cccs4)cc3)C2)c2cn[nH]c2n1` (stereo not shown) [Compound 136, N4-{1-[4-(2-thienyl)benzyl]-1,2,3,4-tetrahydroquinolin-3-yl}-1H-pyrazolo[3,4-d]pyrimidine-4,6-diamine], the inhibition at 10 µM [1] was > 79%, the inhibition at 10 µM [2] was > 79% and the inhibition at 10 µM [3] was < 50%. The inhibition at 10 µM [4] was < 50% and the inhibition at 10 µM [5] was < 50%.
In the case of `COc1cccc(CN2CC(Nc3nc(N)nc4[nH]ncc34)Cc3ccccc32)c1F` (stereo not shown) [Compound 137, N4-[1-(2-fluoro-3-methoxybenzyl)-1,2,3,4-tetrahydroquinolin-3-yl]-1H-pyrazolo[3,4-d]pyrimidine-4,6-diamine], the inhibition at 10 µM [1] is reported as > 79%, the inhibition at 10 µM [2] is reported as > 79% and the inhibition at 10 µM [3] is reported as > 79%. The inhibition at 10 µM [4] was > 79% and the inhibition at 10 µM [5] was > 79%.
`N#Cc1cc(CN2CC(Nc3nc(N)nc4[nH]ncc34)Cc3ccccc32)ccc1F` (stereo not shown) [Compound 138, 5-({3-[(6-amino-1H-pyrazolo[3,4-d]pyrimidin-4-yl)amino]-3,4-dihydroquinolin-1(2H)-yl}methyl)-2-fluorobenzonitrile] was tested, and the inhibition at 10 µM [1] was < 50%, the inhibition at 10 µM [2] was < 50% and the inhibition at 10 µM [3] was < 50%. The inhibition at 10 µM [4] was < 50% and the inhibition at 10 µM [5] was < 50%.
With `CS(=O)(=O)c1ccc(CN2CC(Nc3nc(N)nc4[nH]ncc34)Cc3ccccc32)cc1` (stereo not shown) [Compound 139, N4-{1-[4-(methylsulfonyl)benzyl]-1,2,3,4-tetrahydroquinolin-3-yl}-1H-pyrazolo[3,4-d]pyrimidine-4,6-diamine] the inhibition at 10 µM [1] was > 79%, the inhibition at 10 µM [2] was > 79% and the inhibition at 10 µM [3] was < 50%. The inhibition at 10 µM [4] was < 50% and the inhibition at 10 µM [5] was 50 to 79%.
For `Nc1nc(NC2Cc3ccccc3N(Cc3c(F)cccc3Cl)C2)c2cn[nH]c2n1` (stereo not shown) [Compound 140, N4-[1-(2-chloro-6-fluorobenzyl)-1,2,3,4-tetrahydroquinolin-3-yl]-1H-pyrazolo[3,4-d]pyrimidine-4,6-diamine], the inhibition at 10 µM [1] was > 79%, the inhibition at 10 µM [2] was > 79% and the inhibition at 10 µM [3] was > 79%. The inhibition at 10 µM [4] was 50 to 79% and the inhibition at 10 µM [5] was > 79%.
In the case of `COc1cc(F)ccc1CN1CC(Nc2nc(N)nc3[nH]ncc23)Cc2ccccc21` (stereo not shown) [Compound 141, N4-[1-(4-fluoro-2-methoxybenzyl)-1,2,3,4-tetrahydroquinolin-3-yl]-1H-pyrazolo[3,4-d]pyrimidine-4,6-diamine], the inhibition at 10 µM [1] is reported as > 79%, the inhibition at 10 µM [2] is reported as > 79% and the inhibition at 10 µM [3] is reported as > 79%. For the same compound, the inhibition at 10 µM [4] was > 79% and the inhibition at 10 µM [5] was > 79%.
`COc1ccc(F)c(CN2CC(Nc3nc(N)nc4[nH]ncc34)Cc3ccccc32)c1` (stereo not shown) [Compound 142, N4-[1-(2-fluoro-5-methoxybenzyl)-1,2,3,4-tetrahydroquinolin-3-yl]-1H-pyrazolo[3,4-d]pyrimidine-4,6-diamine] was tested, and the inhibition at 10 µM [1] was < 50%, the inhibition at 10 µM [2] was 50 to 79% and the inhibition at 10 µM [3] was < 50%. For the same compound, the inhibition at 10 µM [4] was < 50% and the inhibition at 10 µM [5] was > 79%.
In the case of `Nc1nc(NC2Cc3ccccc3N(Cc3ccc(-c4ccccn4)cc3)C2)c2cn[nH]c2n1` (stereo not shown) [Compound 143, N4-[1-(4-pyridin-2-ylbenzyl)-1,2,3,4-tetrahydroquinolin-3-yl]-1H-pyrazolo[3,4-d]pyrimidine-4,6-diamine], the inhibition at 10 µM [1] is reported as < 50%, the inhibition at 10 µM [2] is reported as < 50% and the inhibition at 10 µM [3] is reported as < 50%. The inhibition at 10 µM [4] was < 50% and the inhibition at 10 µM [5] was < 50%.
For `COc1ccc(Br)cc1CN1CC(Nc2nc(N)nc3[nH]ncc23)Cc2ccccc21` (stereo not shown) [Compound 144, N4-[1-(5-bromo-2-methoxybenzyl)-1,2,3,4-tetrahydroquinolin-3-yl]-1H-pyrazolo[3,4-d]pyrimidine-4,6-diamine], the inhibition at 10 µM [1] was > 79%, the inhibition at 10 µM [2] was > 79% and the inhibition at 10 µM [3] was > 79%. For the same compound, the inhibition at 10 µM [4] was > 79% and the inhibition at 10 µM [5] was > 79%.
In the case of `N#Cc1cccc(CN2CC(Nc3nc(N)nc4[nH]ncc34)Cc3ccccc32)c1` (stereo not shown) [Compound 145, 3-({3-[(6-amino-1H-pyrazolo[3,4-d]pyrimidin-4-yl)amino]-3,4-dihydroquinolin-1(2H)-yl}methyl)benzonitrile], the inhibition at 10 µM [1] is reported as > 79%, the inhibition at 10 µM [2] is reported as > 79% and the inhibition at 10 µM [3] is reported as > 79%. The inhibition at 10 µM [4] was > 79% and the inhibition at 10 µM [5] was > 79%.
For `COc1cc(CN2CC(Nc3nc(N)nc4[nH]ncc34)Cc3ccccc32)ccc1F` (stereo not shown) [Compound 146, N4-[1-(4-fluoro-3-methoxybenzyl)-1,2,3,4-tetrahydroquinolin-3-yl]-1H-pyrazolo[3,4-d]pyrimidine-4,6-diamine], the inhibition at 10 µM [1] was > 79%, the inhibition at 10 µM [2] was > 79% and the inhibition at 10 µM [3] was > 79%. The inhibition at 10 µM [4] was 50 to 79% and the inhibition at 10 µM [5] was > 79%.
For `CC1(C)CCc2cc(CN3CC(Nc4nc(N)nc5[nH]ncc45)Cc4ccccc43)ccc2O1` (stereo not shown) [Compound 147, N4-{1-[(2,2-dimethyl-3,4-dihydro-2H-chromen-6-yl)methyl]-1,2,3,4-tetrahydroquinolin-3-yl}-1H-pyrazolo[3,4-d]pyrimidine-4,6-diamine], the inhibition at 10 µM [1] was > 79%, the inhibition at 10 µM [2] was > 79% and the inhibition at 10 µM [3] was 50 to 79%. For the same compound, the inhibition at 10 µM [4] was < 50% and the inhibition at 10 µM [5] was > 79%.
`Cc1ccc(C)c(CN2CC(Nc3nc(N)nc4[nH]ncc34)Cc3ccccc32)c1` (stereo not shown) [Compound 148, N4-[1-(2,5-dimethylbenzyl)-1,2,3,4-tetrahydroquinolin-3-yl]-1H-pyrazolo[3,4-d]pyrimidine-4,6-diamine] was tested, and the inhibition at 10 µM [1] was > 79%, the inhibition at 10 µM [2] was > 79% and the inhibition at 10 µM [3] was 50 to 79%. The inhibition at 10 µM [4] was 50 to 79% and the inhibition at 10 µM [5] was > 79%.
For `Nc1nc(NC2Cc3ccccc3N(Cc3ccccc3Oc3ccccc3)C2)c2cn[nH]c2n1` (stereo not shown) [Compound 149, N4-[1-(2-phenoxybenzyl)-1,2,3,4-tetrahydroquinolin-3-yl]-1H-pyrazolo[3,4-d]pyrimidine-4,6-diamine], the inhibition at 10 µM [1] was > 79%, the inhibition at 10 µM [2] was 50 to 79% and the inhibition at 10 µM [3] was < 50%. The inhibition at 10 µM [4] was < 50% and the inhibition at 10 µM [5] was < 50%.
With `Nc1nc(NC2Cc3ccccc3N(Cc3c(F)cccc3F)C2)c2cn[nH]c2n1` (stereo not shown) [Compound 150, N4-[1-(2,6-difluorobenzyl)-1,2,3,4-tetrahydroquinolin-3-yl]-1H-pyrazolo[3,4-d]pyrimidine-4,6-diamine] the inhibition at 10 µM [1] was > 79%, the inhibition at 10 µM [2] was 50 to 79% and the inhibition at 10 µM [3] was < 50%. The inhibition at 10 µM [4] was < 50% and the inhibition at 10 µM [5] was > 79%.
In the case of `Nc1nc(NC2Cc3ccccc3N(Cc3cn(-c4ccccc4)nc3-c3ccccc3)C2)c2cn[nH]c2n1` (stereo not shown) [Compound 151, N4-{1-[(1,3-diphenyl-1H-pyrazol-4-yl)methyl]-1,2,3,4-tetrahydroquinolin-3-yl}-1H-pyrazolo[3,4-d]pyrimidine-4,6-diamine], the inhibition at 10 µM [1] is reported as > 79%, the inhibition at 10 µM [2] is reported as > 79% and the inhibition at 10 µM [3] is reported as < 50%. For the same compound, the inhibition at 10 µM [4] was < 50% and the inhibition at 10 µM [5] was > 79%.
